Here are results for two compounds from patent publication US20060058359A1, “Compounds useful as pesticides” (priority 2002, published 2006).

Data set [1] has as its system Cotton Aphid (Aphis gossypii). Nature of the data set: Testing with Cotton Aphid (squash cotyledon foliar spray assay). The class given is in vivo. The note with it: foliar spray on squash, 3 days after application. An excerpt:
Yellow crookneck squash, Cucurbita pepo, is planted in 3 inch pots and placed in a greenhouse. Plants are watered regularly for 5 to 7 days until they reach the first emergent leaf stage. Plants are then trimmed to a single cotyledon. The squash assay consists of four squash plants per treatment with each plant cotyledon considered a replicate. Four additional plants are used as a control treatment (receiving solvent blank application only). Twenty-four hours prior to application, a leaf section of heavily infested squash plant from the aphid colony is placed onto each cotyledon, allowing a mixed population of A. gossypii nymphs and adults to migrate and infest the test plants. The pre-infested squash cotyledons are sprayed on both the upper and lower surfaces using an airbrush sprayer set at 2 psi. Formulation is an aqueous solution containing 5% solvent and 0.025% Tween 20 surfactant to yield concentrations of 50 ppm and 5 ppm of the test compound. Plants are sprayed to runoff. Tests are held in ambient laboratory temperatures for three days. At 3 days after application (DM) the number of live aphids are counted with the aid of a dissecting microscope. The number of live aphids in the treatment is compared to the number of live aphids in the solvent blank-treated controls and percent mortality is calculated.

In data set [2] the test system is Cat Flea (Cntenocephalides felis). Nature of the data set: Testing with Cat Flea (treated media assay). The format is in vivo. The note with it: 0.1 μg/g rate in media, infested with eggs, adults counted after five weeks vs acetone only. Here is the method:
Media is prepared by mixing 1 part dried bovine blood, 4 parts ground dog food pellets, and 95 parts clean sand. Compounds are dissolved in acetone and further diluted in acetone to yield the required range of concentrations. The acetone solutions are applied to measured amounts of media in small dishes. Final concentrations are expressed as micrograms of compound per gram of media. After the acetone has dried, the treated media is dispensed into small glass vials and infested with 5 to 10 cat flea (Cntenocephalides felis) eggs. The vials are loosely capped and held under controlled conditions for five weeks. Activity is assessed based on the average number of adult cat fleas present in the treated vials compared to the average number of adult cat fleas in the media treated with acetone only.

Consider `C/N=C(/C(=CN(C)C)[N+](=O)[O-])N(C)Cc1ccc(Cl)nc1` [Compound One], for which the percent mortality in data set [1] (5 parts per million) and in data set [1] (50 parts per million) was 100% in each case. The “control of cat fleas” value in data set [2] is 90%.
Take `C/N=C(/C(=CNc1ccccc1)[N+](=O)[O-])N(C)Cc1ccc(Cl)nc1` [Compound Three]: the percent mortality in data set [1] (5 parts per million) and in data set [1] (50 parts per million) was 100% in each case. In addition, the “control of cat fleas” value in data set [2] is 38%.
